Results from US20260124201A1, “CYCLOPENTANE COMPOUND” (Kissei Pharmaceutical Co., Ltd., priority 2022, published 2026).

target: T1, human OX2R (Homo sapiens, UniProt O43614); experiment: Measurement of OX2R agonist activity (intracellular calcium concentration change, Fluo4-AM, FDSS 7000); type: cell-based; conditions: compound concentration 10 μM; human OX2R-expressing CHO-K1 cells; 1 μM human orexin A peptide = 100%, medium alone = 0%
T1 construct: expressed in transfected cells
T1 sequence (O43614 1-444): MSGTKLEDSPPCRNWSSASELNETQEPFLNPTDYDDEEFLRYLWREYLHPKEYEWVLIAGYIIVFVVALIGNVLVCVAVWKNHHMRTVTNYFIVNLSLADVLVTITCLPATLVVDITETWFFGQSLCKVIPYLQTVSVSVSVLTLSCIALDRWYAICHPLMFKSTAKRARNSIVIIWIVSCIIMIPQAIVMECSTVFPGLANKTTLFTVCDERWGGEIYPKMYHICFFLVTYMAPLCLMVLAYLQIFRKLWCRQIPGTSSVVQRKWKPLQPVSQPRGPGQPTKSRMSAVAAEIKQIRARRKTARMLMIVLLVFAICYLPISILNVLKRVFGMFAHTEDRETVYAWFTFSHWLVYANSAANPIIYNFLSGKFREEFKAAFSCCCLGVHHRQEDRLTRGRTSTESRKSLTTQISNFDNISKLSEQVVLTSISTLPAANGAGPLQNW
Source text: The following abbreviations in the description, the figures and the tables have the following meanings, respectively. • AZADOL (registered trademark): 2-Hydroxy-2-azaadamantane • Boc2O: di-tert-butyl dicarbonate • DIPEA: N,N-diisopropylethylamine • DCM: dichloromethane • DMAP: 4-dimethylaminopyridine • DMF: N,N-dimethylformamide • DMSO: dimethylsulfoxide • Deoxo-Fluor: bis(2-methoxyethyl)-aminosulfur trifluoride • HATU: O-(7-azabenzotriazol-1-yl)-N,N,N′,N′-tetramethyluronium hexafluorophosphate • LDA: lithium diisopropylamide • MeCN: acetonitrile • Me4tBuXPhos: 2-di-tert-butylphosphino-3,4,5,6-tetramethyl-2′,4′,6′-triisopropyl-1,1′-biphenyl • MTBE: methyl tert-butyl ether • NMP: N-methylpyrrolidone • PdCl2(PPh3)2: dichlorobis(triphenylphosphine)palladium(II) • Pd(dba)2: bis(dibenzylideneacetone)palladium(0) • Pd2(dba)3: tris(dibenzylideneacetone)dipalladium(0) • Pd(dppf)Cl2: [1,1′-bis(diphenylphosphino)ferrocene]dichloropalladium(II) • Pd(PPh3)4: tetrakis(triphenylphosphine)palladium(0) • TEA: triethylamine • TFA: trifluoroacetic acid • THF: tetrahydrofuran • Xphos: 2-dicyclohexylphosphino-2′,4′,6′-triisopropylbiphenyl • Xphos Pd G3: (2-dicyclohexylphosphino-2′,4′,6′-triisopropyl-1,1′-biphenyl)[2-(2′-amino-1,1′-biphenyl)]palladium(II) methanesulfonic acid salt • 10% Pd/C: Palladium 10% on Carbon (wetted with ca. 55% water) • APS: aminopropylated silica gel • ODS: octadecyl-silylated silica gel • Method A: column chromatography with an aminopropylated silica gel column followed by a silica gel column • Chiral preparative column chromatography: chiral preparative column chromatography using YMC CHIRALART Cellulose-SB • Ref. No.: Reference Example Number • Str.: structural formula • Ex. No.: Example Number • Phys. data: physical data • ^1H-NMR: hydrogen nuclear magnetic resonance spectrum • CDCl3: chloroform-d1 • MS: mass spectrometry (The measured values in the tables were measured by electrospray ionization or multiionization using electrospray ionization-atmospheric pressure chemical ionization.) • Act.: activation rate of test substance at a compound concentration of 10 μM calculated by setting the fluorescence intensity obtained when human orexin A peptide was added at a concentration of 1 μM as 100% and the fluorescence intensity obtained when the medium alone was added as 0% • CHO: Chinese hamster ovary • HEPES: 2-[4-(2-hydroxyethyl)-1-piperazinyl]ethanesulfonic acid
A human OX2R sequence (Accession No. NM_001526.4) was inserted into the multiple cloning site of pcDNA3.4 (Life Technologies Japan Ltd.) to clone a plasmid vector for human OX2R expression. The plasmid was introduced into CHO-K1 cells using Lipofectamine 2000 (Life Technologies Japan Ltd.). Two days later, the transgenic CHO-K1 cells were passaged into 175T flasks and cultured selectively for 6 days. As a selection medium, Ham's F-12 Nutrient Mix (Life Technologies Japan Ltd.), containing Geneticin (registered trademark) (Life Technologies Japan Ltd.) at a final concentration of 1 mg/mL and inactivated fetal bovine serum (Biowest) at a final concentration of 10%, was used. After the selective culture, the cells were reseeded into 96-well plates, and a human OX2R-expressing cell line was obtained by limiting dilution.
The agonist effects of test substances on human OX2R were evaluated using the intracellular calcium concentration-change upon stimulation as an indicator. A day before measurement of the intracellular calcium concentrations, human OX2R-expressing cells suspended in a medium were seeded into 384-well plates at 5×10^3 cells/50 μL/well and cultured overnight in an incubator set at 37° C. and 5% CO2. After incubation, the medium was removed and replaced with 20 μL of a loading buffer. […]

Structure (SMILES) | Act. (%): activation rate of test substance [%]
CS(=O)(=O)N[C@H]1CC[C@](Cc2cccc(-c3ccccc3)c2)(C(=O)NCCO)C1 (relative stereo) [Example 73, (1R*,3S*)-1-([1,1′-Biphenyl]-3-ylmethyl)-N-(2-hydroxyethyl)-3-(methylsulfonamido)cyclopentane-1-carboxamide] | 36
CS(=O)(=O)N[C@H]1CC[C@](Cc2cccc(-c3ccccc3)c2)(C(=O)NCC(F)(F)F)C1 (relative stereo) [Example 74, (1R*,3S*)-1-([1,1′-Biphenyl]-3-ylmethyl)-3-(methylsulfonamido)-N-(2,2,2-trifluoroethyl)cyclopentane-1-carboxamide] | 33
CS(=O)(=O)N[C@H]1CC[C@](Cc2cccc(-c3ccccc3)c2)(C(=O)N2CCC(F)(F)C2)C1 (relative stereo) [Example 75] | 23
CON(C)C(=O)C1(Cc2cccc(-c3ncccn3)c2)CCC(NS(C)(=O)=O)C1 (single isomer, unassigned) [Example 46, N-Methoxy-N-methyl-3-(methylsulfonamido)-1-(3-(pyrimidin-2-yl)benzyl)cyclopentane-1-carboxamide] | 93
CON(C)C(=O)C1(Cc2cccc(-c3ncccn3)c2)CCC(NS(C)(=O)=O)C1 (single isomer, unassigned) [Example 47, N-Methoxy-N-methyl-3-(methylsulfonamido)-1-(3-(pyrimidin-2-yl)benzyl)cyclopentane-1-carboxamide] | 52
CON(C)C(=O)[C@@]1(Cc2ccc(F)c(-c3ncc(F)cn3)c2)CC[C@H](NS(C)(=O)=O)C1 [Example 48, (1R,3S)-1-(4-Fluoro-3-(5-fluoropyrimidin-2-yl)benzyl)-N-methoxy-N-methyl-3-(methylsulfonamido)cyclopentane-1-carboxamide] | 101
CON(C)C(=O)[C@@]1(Cc2ccc(Cl)c(-c3ncc(F)cn3)c2)CC[C@H](NS(C)(=O)=O)C1 [Example 49, (1R,3S)-1-(4-Chloro-3-(5-fluoropyrimidin-2-yl)benzyl)-N-methoxy-N-methyl-3-(methylsulfonamido)cyclopentane-1-carboxamide] | 88
CON(C)C(=O)[C@@]1(Cc2ccc(F)c(-c3ncc(F)cn3)c2)CC[C@H](NS(=O)(=O)CF)C1 [Example 50, (1R,3S)-1-(4-Fluoro-3-(5-fluoropyrimidin-2-yl)benzyl)-3-((fluoromethyl)sulfonamido)-N-methoxy-N-methylcyclopentane-1-carboxamide] | 110
CON(C)C(=O)[C@@]1(Cc2ccc(F)c(-c3ncc(F)cn3)c2)CC[C@H](NS(=O)(=O)C(F)F)C1 [Example 51, (1R,3S)-3-((Difluoromethyl)sulfonamido)-1-(4-fluoro-3-(5-fluoropyrimidin-2-yl)benzyl)-N-methoxy-N-methylcyclopentane-1-carboxamide] | 98
CCS(=O)(=O)N[C@H]1CC[C@](Cc2ccc(F)c(-c3ncc(F)cn3)c2)(C(=O)N(C)OC)C1 [Example 52, (1R,3S)-3-(Ethylsulfonamido)-1-(4-fluoro-3-(5-fluoropyrimidin-2-yl)benzyl)-N-methoxy-N-methylcyclopentane-1-carboxamide] | 99
C=CS(=O)(=O)N[C@H]1CC[C@](Cc2ccc(F)c(-c3ncc(F)cn3)c2)(C(=O)N(C)OC)C1 [Example 53, (1R,3S)-1-(4-Fluoro-3-(5-fluoropyrimidin-2-yl)benzyl)-N-methoxy-N-methyl-3-(vinylsulfonamido)cyclopentane-1-carboxamide] | 106
CON(C)C(=O)[C@@]1(Cc2ccc(F)c(-c3ncc(F)cn3)c2)CC[C@H](NS(=O)(=O)C2COC2)C1 [Example 54, (1R,3S)-1-(4-Fluoro-3-(5-fluoropyrimidin-2-yl)benzyl)-N-methoxy-N-methyl-3-(oxetane-3-sulfonamido)cyclopentane-1-carboxamide] | 90
CON(C)C(=O)[C@@]1(Cc2ccc(O)c(-c3ncc(F)cn3)c2)CC[C@H](NS(C)(=O)=O)C1 [Example 55, (1R,3S)-1-(3-(5-Fluoropyrimidin-2-yl)-4-hydroxybenzyl)-N-methoxy-N-methyl-3-(methylsulfonamido)cyclopentane-1-carboxamide] | 106
COc1ccc(C[C@]2(C(=O)N(C)OC)CC[C@H](NS(C)(=O)=O)C2)cc1-c1ncc(F)cn1 [Example 56, (1R,3S)-1-(3-(5-Fluoropyrimidin-2-yl)-4-methoxybenzyl)-N-methoxy-N-methyl-3-(methylsulfonamido)cyclopentane-1-carboxamide] | 51
CON(C)C(=O)[C@@]1(Cc2cccc(-c3ncc(F)cn3)c2)C[C@H](F)[C@H](NS(C)(=O)=O)C1 [Example 57, (1R,3S,4R)-3-Fluoro-1-(3-(5-fluoropyrimidin-2-yl)benzyl)-N-methoxy-N-methyl-4-(methylsulfonamido)cyclopentane-1-carboxamide] | 92
CON(C)C(=O)[C@@]1(Cc2cccc(-c3ncc(F)cn3)c2)C[C@H](F)[C@H](NS(=O)(=O)C(C)C)C1 [Example 58, (1R,3S,4R)-3-Fluoro-1-(3-(5-fluoropyrimidin-2-yl)benzyl)-N-methoxy-N-methyl-4-((1-methylethyl)sulfonamido)cyclopentane-1-carboxamide] | 95
CCS(=O)(=O)N[C@@H]1C[C@@](Cc2cccc(-c3ncc(F)cn3)c2)(C(=O)N(C)OC)C[C@@H]1F [Example 59, (1R,3R,4S)-3-(Ethylsulfonamido)-4-fluoro-1-(3-(5-fluoropyrimidin-2-yl)benzyl)-N-methoxy-N-methylcyclopentane-1-carboxamide] | 98
CON(C)C(=O)[C@@]1(Cc2cccc(-c3ncc(F)cn3)c2)C[C@H](F)[C@H](NS(=O)(=O)C2CC2)C1 [Example 60, (1R,3R,4S)-3-(Cyclopropanesulfonamido)-4-fluoro-1-(3-(5-fluoropyrimidin-2-yl)benzyl)-N-methoxy-N-methylcyclopentane-1-carboxamide] | 94
CCS(=O)(=O)N[C@@H]1C[C@@](Cc2cc(-c3ncccn3)ccc2F)(C(=O)N(C)OC)C[C@@H]1F [Example 61, (1R,3R,4S)-3-(Ethylsulfonamido)-4-fluoro-1-(2-fluoro-5-(pyrimidin-2-yl)benzyl)-N-methoxy-N-methylcyclopentane-1-carboxamide] | 105
CON(C)C(=O)[C@@]1(Cc2ccc(Cl)c(-c3ncc(F)cn3)c2)C[C@H](F)[C@H](NS(C)(=O)=O)C1 [Example 62, (1R,3S,4R)-1-(4-Chloro-3-(5-fluoropyrimidin-2-yl)benzyl)-3-fluoro-N-methoxy-N-methyl-4-(methylsulfonamido)cyclopentane-1-carboxamide] | 96
